Measured values reported in patent publication US20050101595A1, “N-containing cycloalkyl-substituted amino-thiazole derivatives and pharmaceutical compositions for inhibiting cell proliferation and methods for their use” (PFIZER INC., priority 2003, published 2005).
Counter-ions that a name gives are not always drawn. Like-named read-outs stand apart in the source and are kept apart here.

Tests used:
CDK2/Cyclin A = CDK2/Cyclin A (Homo sapiens, UniProt P24941); assay: Inhibition of CDK2/Cyclin A Retinoblastoma Kinase Activity; format: biochemical; details: apparent Ki, CDK2/proteolyzed cyclin A, Rb fragment substrate, 25 μM ATP
In short: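 Baculovirus-expressed CDK2 complexed with proteolyzed cyclin A (10 or 19 nM), Rb fragment substrate, 25 μM [32P/33P]ATP, HEPES pH 7.4, 30 °C for 60 or 75 min under initial-rate conditions. Filter capture and phosphorimager readout; apparent Ki fitted to competitive or tight-binding competitive inhibition.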

HCT-116 cell line = assay: Inhibition of cell growth, tetrazolium salt (MTT) assay; format: cell-based; details: Homo sapiens, HCT-116, 120 h, MTT, three to five days, read-out: HCT-116 IC50
In short: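 Cells in McCoy's 5A medium were left 4 h, then given graded compound concentrations in 0.5% (v/v) DMSO and incubated three to five days at 37° C (5% CO2). MTT was added to 0.2 mg/mL for 4 h more; DMSO-solubilized formazan was read at 540 nm against 0.5% DMSO-only controls.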

[1] = biological target: human CDK4 and genetically truncated (1-264) cyclin D3 (Homo sapiens, UniProt P11802); assay: Inhibition of CDK4/Cyclin D Retinoblastoma Kinase Activity; format: biochemical; details: apparent Ki, CDK4/truncated cyclin D3, Rb fragment substrate, 25 μM ATP
Chain of human CDK4 and genetically truncated (1-264) cyclin D3 (P11802 whole entry, the tested form may be a part): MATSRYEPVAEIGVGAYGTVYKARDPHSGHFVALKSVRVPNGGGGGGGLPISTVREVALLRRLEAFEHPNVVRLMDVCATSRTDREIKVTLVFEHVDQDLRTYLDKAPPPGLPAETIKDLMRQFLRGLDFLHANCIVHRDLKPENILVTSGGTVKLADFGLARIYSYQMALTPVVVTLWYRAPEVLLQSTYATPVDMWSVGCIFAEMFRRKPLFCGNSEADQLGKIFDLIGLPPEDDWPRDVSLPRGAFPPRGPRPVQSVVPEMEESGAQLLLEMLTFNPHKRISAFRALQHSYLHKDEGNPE
Chain of human CDK4 and genetically truncated (1-264) cyclin D3 (P30281 1-264 partner): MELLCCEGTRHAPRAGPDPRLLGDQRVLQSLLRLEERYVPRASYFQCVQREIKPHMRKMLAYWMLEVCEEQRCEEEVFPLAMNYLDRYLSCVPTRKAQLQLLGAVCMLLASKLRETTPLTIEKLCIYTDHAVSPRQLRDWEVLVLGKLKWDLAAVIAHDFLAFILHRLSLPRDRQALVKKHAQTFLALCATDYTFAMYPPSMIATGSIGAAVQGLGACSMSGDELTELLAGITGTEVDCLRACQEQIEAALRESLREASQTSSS
In short: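 Human CDK4/truncated cyclin D3 (1-264) complex from baculovirus-infected insect cells, 5 nM, phosphorylating Rb fragment (residues 386-928, His-tagged) with 25 μM [32/33P]ATP in HEPES pH 7.4, MgCl2, 2% DMSO at 30° C. for 20 min (60 min for tight binders). Filter-captured radioactivity by phosphorimager; apparent Ki from competitive or tight-binding fits.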

| Compound | Ki (CDK2/Cyclin A) [nM] | IC50 (HCT-116 cell line; first HCT-116 column (c4)) [nM] | IC50 (HCT-116 cell line; second HCT-116 column (c5)) [nM] | Ki [1] [nM] |
| --- | --- | --- | --- | --- |
| C[C@@H]1CN(CCCS(=O)(=O)N2CCC(Nc3nc(N)c(C(=O)c4c(F)cccc4F)s3)CC2)C[C@H](C)N1 [Example K1, 1-(4-Amino-2-{1-[3-(3,5-cis-dimethylpiperazin-1-yl)-propane-1-sulfonyl]-piperidin-4-ylamino}-thiazol-5-yl)-1-(2,6-difluoro-phenyl)-methanone] | 7.8 | > 5000 | > 5000 | 2 |
| Nc1nc(NC2CCN(S(=O)(=O)CCCn3ccnc3)CC2)sc1C(=O)c1c(F)cccc1F [Example K2] | 6.3 | 2300 | > 5000 | 4.7 |
| CCCN(CCCS(=O)(=O)N1CCC(Nc2nc(N)c(C(=O)c3c(F)cccc3F)s2)CC1)CC1CC1 [Example K6, 1-(4-Amino-2-{1-[3-(cyclopropylmethyl-propyl-amino)propane-1-sulfonyl]-piperidin-4-ylamino}-thiazol-5-yl)-1-(2,6-difluoro-phenyl)-methanone.] | 5.8 | 180 | 800 | 1.5 |
| Nc1nc(NC2CCN(S(=O)(=O)CCCN3CCOCC3)CC2)sc1C(=O)c1c(F)cccc1F [Example K12, 1-(4-Amino-2-{1-[3-(morpholin-4-yl)propane-1-sulfonyl]-piperidin-4-ylamino}-thiazol-5-yl)-1-(2,6-difluoro-phenyl)-methanone.] | 6.7 | 600 | 5000 | 4.7 |
| Nc1nc(NC2CCN(S(=O)(=O)CCCN3CCSCC3)CC2)sc1C(=O)c1c(F)cccc1F [Example K13, 1-(4-Amino-2-{1-[3-(thiomorpholin-4-yl)propane-1-sulfonyl]-piperidin-4-ylamino}-thiazol-5-yl)-1-(2,6-difluoro-phenyl)-methanone.] | 3.9 | 390 | 1300 | 2.5 |
| CC1(C)CN(CCCS(=O)(=O)N2CCC(Nc3nc(N)c(C(=O)c4c(F)cccc4F)s3)CC2)CCN1 [Example K14, 1-(4-Amino-2-{1-[3-(3,3-dimethylpiperazin-1-yl)propane-1-sulfonyl]-piperidin-4-ylamino}-thiazol-5-yl)-1-(2,6-difluoro-phenyl)-methanone.] | 7.9 | 3300 | > 5000 | 2.9 |
| CCN1CCN(CCCS(=O)(=O)N2CCC(Nc3nc(N)c(C(=O)c4c(F)cccc4F)s3)CC2)CC1 [Example K15, 1-(4-Amino-2-{1-[3-(4-ethylpiperazin-1-yl)propane-1-sulfonyl]-piperidin-4-ylamino}-thiazol-5-yl)-1-(2,6-difluoro-phenyl)-methanone.] | 8.7 | 1300 | 5000 | 2.5 |
| CN1CCN(CCCS(=O)(=O)N2CCC(Nc3nc(N)c(C(=O)c4c(F)cccc4F)s3)CC2)CC1 [Example K16, 1-(4-Amino-2-{1-[3-(4-methylpiperazin-1-yl)propane-1-sulfonyl]-piperidin-4-ylamino}-thiazol-5-yl)-1-(2,6-difluoro-phenyl)-methanone.] | 7.8 | 1800 | 5000 | 2.8 |
| CC(=O)N(C)C1CCN(CCCS(=O)(=O)N2CCC(Nc3nc(N)c(C(=O)c4c(F)cccc4F)s3)CC2)C1 (stereo not shown) [Example K20, N-{1-[3-(4-{4-Amino-5-[1-(2,6-difluoro-phenyl)-methanoyl]-thiazol-2-ylamino}-piperidine-1-sulfonyl)-propyl]-pyrrolidin-3-yl}-N-methyl-acetamide] | 4.8 | 2000 | 5000 | 1.5 |
| Cn1ccnc1SCCCS(=O)(=O)N1CCC(Nc2nc(N)c(C(=O)c3c(F)cccc3F)s2)CC1 [Example K22, 1-(4-Amino-2-{1-[3-(1-methyl-1H-imidazol-2-ylsulfanyl)-propane-1-sulfonyl]-piperidin-4-ylamino}-thiazol-5-yl)-1-(2,6-difluoro-phenyl)-methanone.] | 4.8 | > 500 | > 500 | 7.3 |

Molecules with a lower Ki (CDK2/Cyclin A), results first:

| Ki (CDK2/Cyclin A) [nM] | IC50 (HCT-116 cell line; first HCT-116 column (c4)) [nM] | IC50 (HCT-116 cell line; second HCT-116 column (c5)) [nM] | Ki [1] [nM] | Compound |
| --- | --- | --- | --- | --- |
| 2.4 | 130 | 320 | 0.85 | CN(C)CCN(C)Cc1ccc(S(=O)(=O)N2CCC(Nc3nc(N)c(C(=O)c4c(F)cccc4F)s3)CC2)cc1 [Example J9, 1-{4-Amino-2-[1-(4-{[(2-dimethylamino-ethyl)-methyl-amino]-methyl}-benzenesulfonyl)-piperidin-4-ylamino]-thiazol-5-yl}-1-(2,6-difluoro-phenyl)-methanone Hydrochloride Salt.] |
| 1.7 | 160 | 2900 | 0.39 | C[C@@H]1CN(Cc2ccc(S(=O)(=O)N3CCC(Nc4nc(N)c(C(=O)c5c(F)cccc5F)s4)CC3)cc2)C[C@H](C)N1 [Example J10, 1-{4-Amino-2-{1-[4-(3,5-dimethyl-piperazin-1-ylmethyl)-benzenesulfonyl]-piperidin-4-ylamino}-thiazol-5-yl)-1-(2,6-difluoro-phenyl)-methanone Hydrochloride Salt.] |
| 1.8 | 410 | 1500 | 1.3 | CN(C)CCCS(=O)(=O)N1CCC(Nc2nc(N)c(C(=O)c3c(F)cccc3F)s2)CC1 [Example K4, 1-(4-Amino-2-{1-[3-(dimethylamino)propane-1-sulfonyl]-piperidin-4-ylamino}-thiazol-5-yl)-1-(2,6-difluoro-phenyl)-methanone.] |
| 1 | 140 | 580 | 1.5 | Nc1nc(NC2CCN(S(=O)(=O)CCCN3CCc4ccccc4C3)CC2)sc1C(=O)c1c(F)cccc1F [Example K5, 1-(4-Amino-2-{1-[3-(3,4-dihydro-1H-isoquinolin-2-yl)propane-1-sulfonyl]-piperidin-4-ylamino}-thiazol-5-yl)-1-(2,6-difluoro-phenyl)-methanone.] |
| 2 | 210 | 1700 | 2.9 | Nc1nc(NC2CCN(S(=O)(=O)CCCN3CCCCC3)CC2)sc1C(=O)c1c(F)cccc1F [Example K7, 1-(4-Amino-2-{1-[3-(piperidin-1-yl)propane-1-sulfonyl]-piperidin-4-ylamino}-thiazol-5-yl)-1-(2,6-difluoro-phenyl)-methanone.] |
| 1.8 | 310 | 2900 | 2.7 | Nc1nc(NC2CCN(S(=O)(=O)CCCN3CCCC3)CC2)sc1C(=O)c1c(F)cccc1F [Example K8, 1-(4-Amino-2-{1-[3-(pyrrolidin-1-yl)propane-1 sulfonyl]-piperidin-4-ylamino}-thiazol-5-yl)-1-(2,6-difluoro-phenyl)-methanone.] |
| < 1.3 | 90 | 930 | 1.6 | Nc1nc(NC2CCN(S(=O)(=O)CCCN3CC=CC3)CC2)sc1C(=O)c1c(F)cccc1F [Example K9, 1-(4-Amino-2-{1-[3-(2,5-dihydropyrrol-1-yl)propane-1-sulfonyl]-piperidin-4-ylamino}-thiazol-5-yl)-1-(2,6-difluoro-phenyl)-methanone.] |
| 2.9 | 130 | 1300 | 1.8 | Nc1nc(NC2CCN(S(=O)(=O)CCCN3CC=CCC3)CC2)sc1C(=O)c1c(F)cccc1F [Example K11, 1-(4-Amino-2-{1-[3-(3,6-dihydro-2H-pyridin-1-yl)propane-1-sulfonyl]-piperidin-4-ylamino}-thiazol-5-yl)-1-(2,6-difluoro-phenyl)-methanone.] |
| 2.5 | 890 | 2200 | 3.4 | N#CCCCS(=O)(=O)N1CCC(Nc2nc(N)c(C(=O)c3c(F)cccc3F)s2)CC1 [Example K17, 1-(4-{4-Amino-5-[1-(2,6-difluorophenyl)methanoyl]-thiazol-2-ylamino}-piperidine-1-sulfonyl)butyronitrile.] |
| 3.1 | > 5000 | > 5000 | 18 | Nc1nc(NC2CCN(S(=O)(=O)CCCc3nnn[nH]3)CC2)sc1C(=O)c1c(F)cccc1F [Example K18, 1-(4-Amino-2-{1-[3-(1H-tetrazol-5-yl)-propane-1-sulfonyl]-piperidin-4-ylamino}-thiazol-5-yl)-1-(2,6-difluoro-phenyl)-methanone.] |
| 1.3 | 810 | > 5000 | 2 | Nc1nc(NC2CCN(S(=O)(=O)CCCN3CCC3)CC2)sc1C(=O)c1c(F)cccc1F [Example K19, 1-{4-Amino-2-[1-(3-azetidin-1-yl-propane-1-sulfonyl)-piperidin-4-ylamino]-thiazol-5-yl}-1-(2,6-difluoro-phenyl)-methanone.] |
| 2.7 | > 500 | > 500 | 4.4 | Nc1nc(NC2CCN(S(=O)(=O)CCCSc3ccccn3)CC2)sc1C(=O)c1c(F)cccc1F [Example K21, 1-(4-Amino-2-{1-[3-(pyridin-2-ylsulfanyl)-propane-1-sulfonyl]-piperidin-4-ylamino}-thiazol-5-yl)-1-(2,6-difluoro-phenyl)-methanone] |
